For experiment [1], the target named is Histamine H4 receptor (Homo sapiens, UniProt Q9H3N8). Nature of the experiment: Displacement of [3H]histamine from wild type human histamine H4 receptor transfected in HEK293T cells after 1.5 hrs by liquid scintillation counting analysis. In kind it is cell-based, HEK-293T. On the technique in general: Displacement assays read how much labelled ligand stays bound in the presence of the test substance.

The target of experiment [2] is Histamine H4 receptor (Homo sapiens, UniProt Q9H3N8, E182Q). Nature of the experiment: Displacement of [3H]-JNJ 7777120 from human histamine H4 receptor E182'5.46Q mutant transfected in HEK293T cells after 1.5 hrs by liquid scintillation counting analysis.
Experiment [3] has as its target Histamine H4 receptor (Homo sapiens, UniProt Q9H3N8, L175V). Nature of the experiment: Displacement of [3H]histamine from human histamine H4 receptor L175'5.39V mutant transfected in HEK293T cells after 1.5 hrs by liquid scintillation counting analysis. In kind it is cell-based, HEK-293T.

SMILES strings stand for the structures.

Histamine H4 receptor (Homo sapiens, UniProt Q9H3N8), sequence (Q9H3N8 whole entry): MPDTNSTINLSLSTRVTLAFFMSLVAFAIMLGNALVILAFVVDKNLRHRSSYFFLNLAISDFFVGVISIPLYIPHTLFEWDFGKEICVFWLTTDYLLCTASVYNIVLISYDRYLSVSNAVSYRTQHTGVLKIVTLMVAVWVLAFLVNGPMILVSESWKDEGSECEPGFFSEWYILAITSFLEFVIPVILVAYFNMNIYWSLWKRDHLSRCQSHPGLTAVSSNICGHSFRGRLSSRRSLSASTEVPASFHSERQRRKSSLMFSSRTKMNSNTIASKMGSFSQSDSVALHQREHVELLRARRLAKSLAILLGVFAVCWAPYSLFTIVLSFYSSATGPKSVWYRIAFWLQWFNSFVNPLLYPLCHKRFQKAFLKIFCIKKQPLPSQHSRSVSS
Histamine H4 receptor (Homo sapiens, UniProt Q9H3N8, L175V), sequence (Q9H3N8 whole entry L175V): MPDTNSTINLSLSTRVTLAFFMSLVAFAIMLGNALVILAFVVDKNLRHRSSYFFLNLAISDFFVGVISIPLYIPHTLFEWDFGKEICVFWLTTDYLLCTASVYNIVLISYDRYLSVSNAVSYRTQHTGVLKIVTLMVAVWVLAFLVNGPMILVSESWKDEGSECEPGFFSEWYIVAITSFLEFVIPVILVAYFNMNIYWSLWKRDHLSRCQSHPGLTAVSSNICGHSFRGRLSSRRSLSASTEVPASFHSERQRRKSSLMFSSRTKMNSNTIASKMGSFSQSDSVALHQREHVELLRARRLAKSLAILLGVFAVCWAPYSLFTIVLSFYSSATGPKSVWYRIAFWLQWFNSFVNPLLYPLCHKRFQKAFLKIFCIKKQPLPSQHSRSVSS
Histamine H4 receptor (Homo sapiens, UniProt Q9H3N8, E182Q), sequence (Q9H3N8 whole entry E182Q): as the sequence (Q9H3N8 whole entry L175V) above, with V175L, E182Q counted along it

Usually Ki stands for the dissociation constant of the complex between target and ligand, obtained from inhibition or displacement. Lower therefore signals a stronger hold on the target. `COc1ccc2[nH]c(C(=O)N3CCN(C)CC3)cc2c1` showed a Ki in experiment [1] of 5010 nM.

For the molecule `CN1CCN(c2cc(-c3ccc(Cl)cc3)nc(N)n2)CC1`, the Ki in experiment [1] was 2 nM; in experiment [2], 200 nM; in experiment [3] it was 63.1 nM.

In the case of `CN1CCN(c2cc(-c3ccc([N+](=O)[O-])cc3)nc(N)n2)CC1`, the Ki in experiment [1] was 7.94 nM. This lies in the single-digit nanomolar range.

On to `COc1ccc(-c2cc(N3CCN(C)CC3)nc(N)n2)cc1`, for which, in experiment [1], the affinity corresponds to a Ki of 15.8 nM.

For the molecule `CN1CCN(C(=O)c2cc3cc([N+](=O)[O-])ccc3[nH]2)CC1`, in experiment [1], affinity was put at a Ki of 100 nM.

Turning to `CN1CCN(c2cc(-c3ccccc3)nc(N)n2)CC1`, the Ki in experiment [2] was 63.1 nM; in experiment [3] it was 20 nM.

In experiment [1], `CN1CCN(c2cc(-c3ccc(N)cc3)nc(N)n2)CC1` had a Ki of 5.01 nM.

The record behind these values is ChEMBL document CHEMBL3132790 (Medchemcomm, 2013).
